Laboratory results published in patent publication US10919935B2, “Antimicrobial peptide derived from myxinidin peptide and uses thereof” (INDUSTRY-ACADEMIC COOPERATION FOUNDATION, CHOSUN UNIVERSITY, priority 2015, dated 2021).
Residues, ends and D or L forms follow the SMILES beside them.

Assays:
[1] = system: S. typhimurium 8009; experiment: MIC at salt concentration (Example 3); format: cell-based, Salmonella typhimurium
Protocol: (§1) To compare the antimicrobial activity of the peptide produced by the method of Example 1, the inventors of the present invention measured the minimum growth inhibitory concentration (MIC), which is minimum concentration of the peptide showing no dissociation of bacterial cells, at salt concentration.
(§2) Specifically, the bacterial strain described in the above Table 2 was cultured in each medium to a mid-log phase. Then, after dilution to bacterial cell concentration of 2×10^5 cells/100 μl, the cells were inoculated to a microtiter plate (NUNC, USA). Thereafter, myxinidin 1, myxinidin 2, or myxinidin 3 peptides which have been synthesized in Example 1 above was diluted, 1/2 times for each, with BSA+150 mM sodium chloride (NaCl) solution, physiological saline (PBS) solution, or 10 mM sodium phosphate (SP) solution in a 96-well plate. After adding the cells to a plate, the cells were cultured for 12 hours at 37° C. By using a microtiter plate reader (Merck Elisa reader, Germany), the absorbance was measured at a wavelength of 600 nm to determine the MIC value of each bacterial strain. As a control group, myxinidin as a mother peptide was subjected to the same processes as above and the MIC value of each bacterial strain was obtained.

[2] = system: S. typhimurium 8013; experiment: MIC at salt concentration (Example 3); format: cell-based, Salmonella typhimurium
Protocol: as §1, §2

[3] = system: S. typhimurium; experiment: MIC at salt concentration (Example 3); format: cell-based, Salmonella typhimurium
Protocol: as §1, §2

[4] = system: S. aureus 3114; experiment: MIC at salt concentration (Example 3); format: cell-based, Staphylococcus aureus
Protocol: as §1, §2

[5] = system: S. aureus 3709; experiment: MIC at salt concentration (Example 3); format: cell-based, Staphylococcus aureus
Protocol: as §1, §2

[6] = system: S. aureus; experiment: MIC at salt concentration (Example 3); format: cell-based, Staphylococcus aureus
Protocol: as §1, §2

[7] = system: L. monocytogenes; experiment: MIC at salt concentration (Example 3); format: cell-based, Listeria monocytogenes
Protocol: as §1, §2

[8] = system: Escherichia coli 1229; experiment: MIC at salt concentration (Example 3); format: cell-based
Protocol: as §1, §2

[9] = system: P. aeruginosa 3592; experiment: MIC at salt concentration (Example 3); format: cell-based, Pseudomonas aeruginosa
Protocol: as §1, §2

[10] = system: P. aeruginosa 5018; experiment: MIC at salt concentration (Example 3); format: cell-based, Pseudomonas aeruginosa
Protocol: as §1, §2

[11] = system: P. aeruginosa; experiment: MIC at salt concentration (Example 3); format: cell-based, Pseudomonas aeruginosa
Protocol: as §1, §2

[12] = system: P. aeruginosa; experiment: Anti-biofilm activity (crystal violet); format: cell-based, Pseudomonas aeruginosa
Protocol: (§3) To compare the antimicrobial activity of the peptide produced by the method of Example 1, the inventors of the present invention measured the biofilm inhibitory concentration value of the peptide showing no dissociation of bacterial cells.
(§4) Specifically, the Gram-negative bacteria and Gram-positive bacteria among the bacterial strains described in the above Table 2 were cultured in each medium to a mid-log phase. Then, after dilution to bacterial cell concentration of 5×10^5 cells/100 μl, the cells were inoculated to a microtiter plate (NUNC, USA). Thereafter, myxinidin 1, myxinidin 2, or myxinidin 3 peptides which have been synthesized in Example 1 above was diluted, 1/10 times for each, with physiological saline (PBS) solution in a 96-well plate. After adding the cells to a plate, the cells were cultured for 12 hours at 37° C. After removing the supernatant, the cells were fixed with 100% methanol and reacted for 2 hours with Crystal violet staining solution followed by rinsing for 3 times. Then, after dissolving in 95% ethanol, the absorbance was measured at a wavelength of 595 nm by using a microtiter plate reader (Merck Elisa reader, Germany) to determine the biofilm inhibitory concentration value of each bacterial strain. As a control group, myxinidin as a mother peptide was subjected to the same processes as above and the biofilm inhibitory concentration value of each bacterial strain was obtained.

[13] = system: S. aureus; experiment: Anti-biofilm activity (crystal violet); format: cell-based, Staphylococcus aureus
Protocol: as §3, §4

[14] = system: L. monocytogenes; experiment: Anti-biofilm activity (crystal violet); format: cell-based, Listeria monocytogenes
Protocol: as §3, §4

[15] = in vitro; format: cell-based; conditions: human, NHK cells (normal human keratinocytes)
Protocol: To determine the cytotoxicity of the peptide produced by the method of Example 1 in normal cell line, toxicity was measured by using NHK cells (Normal Human Keratinocyte cells).
Specifically, NHK cells which have been cultured in Epilife medium with 60 μM calcium (Gibco, USA) containing 10% HKGS (Human Keratinocyte Growth Supplement) (Gibco, USA) were aliquoted in a 96-well plate to have 1×10^4 cells per well. After culturing them for 24 hours, the cells were subjected to a treatment with myxinidin, myxinidin 1, myxinidin 2, or myxinidin 3 peptide, each at concentration of 3.125, 6.25, 12.5, or 25.0 μM/well, followed by reaction for 24 hours in a 5% CO2 incubator. After the culture, a reaction solution containing 5 mg/ml MTT (Thiazolyl Blue Tetrazolium Bromide) dissolved in physiological saline (PBS) was added in an amount of 20 μl to each well and allowed to react for 4 hours. After that, the supernatant was removed, and, by dissolving MTT crystals that are formed by adding 200 μl of DMSO, the absorbance at 560 nm was measured to determine the cell survival ability.

[16] = NaCl (BSA+150 mM sodium chloride)

**Q.** For `CC[C@H](C)[C@H](NC(=O)CN)C(=O)N[C@@H](Cc1c[nH]cn1)C(=O)N[C@@H](Cc1c[nH]cn1)C(=O)N[C@H](C(=O)N[C@@H](CC(C)C)C(=O)N[C@@H](CCCCN)C(=O)N[C@@H](Cc1ccc(O)cc1)C(=O)NCC(=O)N[C@@H](CCCCN)C(=O)N1CCC[C@H]1C(=O)N[C@@H](CO)C(N)=O)[C@@H](C)CC` [Myxinidin 1, GIHHILKYGKPS-NH2] (H-GIHHILKYGKPS-NH2; N-terminus assumed), which “Antimicrobial activity (MIC) according to salt concentration” value (“Antimicrobial activity (MIC) according” below) [1, 16] is on record?
**A.** The value was greater than 32.

**Q.** What about the “Antimicrobial activity (MIC) according” value ([1]; PBS) of the same molecule?
**A.** The value was greater than 32.

**Q.** What about the “Antimicrobial activity (MIC) according” value ([1]; SP (10 mM sodium phosphate)) of the same molecule?
**A.** Its value is greater than 32.

**Q.** What about the “Antimicrobial activity (MIC) according” value [2, 16] of the same molecule?
**A.** The value was greater than 32.

**Q.** And the “Antimicrobial activity (MIC) according” value ([2]; PBS)?
**A.** Its value is greater than 32.

**Q.** What about the “Antimicrobial activity (MIC) according” value ([2]; SP (10 mM sodium phosphate)) of the same molecule?
**A.** The value was greater than 32.

**Q.** And the “Antimicrobial activity (MIC) according” value [3, 16]?
**A.** Its value is greater than 32.

**Q.** And the “Antimicrobial activity (MIC) according” value ([3]; PBS)?
**A.** Its value is greater than 32.

**Q.** And the “Antimicrobial activity (MIC) according” value ([3]; SP (10 mM sodium phosphate))?
**A.** Its value is greater than 32.

**Q.** What about the “Antimicrobial activity (MIC) according” value [4, 16] of the same molecule?
**A.** The value was greater than 32.

**Q.** And the “Antimicrobial activity (MIC) according” value ([4]; PBS)?
**A.** The value was greater than 32.

**Q.** What about the “Antimicrobial activity (MIC) according” value ([4]; SP (10 mM sodium phosphate)) of the same molecule?
**A.** The value was greater than 32.

**Q.** And the “Antimicrobial activity (MIC) according” value [5, 16]?
**A.** The value was greater than 32.

**Q.** And the “Antimicrobial activity (MIC) according” value ([5]; PBS)?
**A.** The value was greater than 32.

**Q.** What about the “Antimicrobial activity (MIC) according” value ([5]; SP (10 mM sodium phosphate)) of the same molecule?
**A.** The value was greater than 32.

**Q.** What about the “Antimicrobial activity (MIC) according” value [6, 16] of the same molecule?
**A.** The value was greater than 32.

**Q.** What about the “Antimicrobial activity (MIC) according” value ([6]; PBS) of the same molecule?
**A.** The value was greater than 32.

**Q.** What about the “Antimicrobial activity (MIC) according” value ([6]; SP (10 mM sodium phosphate)) of the same molecule?
**A.** The value was greater than 32.

**Q.** What about the “Antimicrobial activity (MIC) according” value [7, 16] of the same molecule?
**A.** Its value is greater than 32.

**Q.** What about the “Antimicrobial activity (MIC) according” value ([7]; PBS) of the same molecule?
**A.** The value was greater than 32.

**Q.** What about the “Antimicrobial activity (MIC) according” value ([7]; SP (10 mM sodium phosphate)) of the same molecule?
**A.** Its value is greater than 32.

**Q.** What about the “Antimicrobial activity (MIC) according” value [8, 16] of the same molecule?
**A.** The value was greater than 32.

**Q.** And the “Antimicrobial activity (MIC) according” value ([8]; PBS)?
**A.** Its value is greater than 32.

**Q.** What about the “Antimicrobial activity (MIC) according” value ([8]; SP (10 mM sodium phosphate)) of the same molecule?
**A.** Its value is greater than 32.

**Q.** What about the “Antimicrobial activity (MIC) according” value [9, 16] of the same molecule?
**A.** Its value is greater than 32.

**Q.** What about the “Antimicrobial activity (MIC) according” value ([9]; PBS) of the same molecule?
**A.** The value was greater than 32.

**Q.** And the “Antimicrobial activity (MIC) according” value ([9]; SP (10 mM sodium phosphate))?
**A.** The value was greater than 32.

**Q.** What about the “Antimicrobial activity (MIC) according” value [10, 16] of the same molecule?
**A.** Its value is greater than 32.

**Q.** And the “Antimicrobial activity (MIC) according” value ([10]; PBS)?
**A.** Its value is greater than 32.

**Q.** What about the “Antimicrobial activity (MIC) according” value ([10]; SP (10 mM sodium phosphate)) of the same molecule?
**A.** Its value is greater than 32.

**Q.** And the “Antimicrobial activity (MIC) according” value [11, 16]?
**A.** Its value is greater than 32.

**Q.** What about the “Antimicrobial activity (MIC) according” value ([11]; PBS) of the same molecule?
**A.** The value was greater than 32.

**Q.** And the “Antimicrobial activity (MIC) according” value ([11]; SP (10 mM sodium phosphate))?
**A.** The value was greater than 32.

**Q.** And the Biofilm forming ability ([12]; peptide 0.25 μM)?
**A.** Its Biofilm forming ability is 100%.

**Q.** What about the Biofilm forming ability ([12]; peptide 0.5 μM) of the same molecule?
**A.** The Biofilm forming ability was 100%.

**Q.** What about the Biofilm forming ability ([12]; peptide 1 μM) of the same molecule?
**A.** The Biofilm forming ability was 94%.

**Q.** What about the Biofilm forming ability ([12]; peptide 2 μM) of the same molecule?
**A.** Its Biofilm forming ability is 93%.

**Q.** What about the Biofilm forming ability ([12]; peptide 4 μM) of the same molecule?
**A.** Its Biofilm forming ability is 92%.

**Q.** What about the Biofilm forming ability ([12]; peptide 8 μM) of the same molecule?
**A.** Its Biofilm forming ability is 92%.

**Q.** And the Biofilm forming ability ([12]; peptide 16 μM)?
**A.** The Biofilm forming ability was 89%.

**Q.** And the Biofilm forming ability ([12]; peptide 32 μM)?
**A.** The Biofilm forming ability was 88%.

**Q.** And the Biofilm forming ability ([13]; peptide 0.25 μM)?
**A.** The Biofilm forming ability was 98%.

**Q.** What about the Biofilm forming ability ([13]; peptide 0.5 μM) of the same molecule?
**A.** Its Biofilm forming ability is 88%.

**Q.** And the Biofilm forming ability ([13]; peptide 1 μM)?
**A.** The Biofilm forming ability was 87%.

**Q.** What about the Biofilm forming ability ([13]; peptide 2 μM) of the same molecule?
**A.** The Biofilm forming ability was 86%.

**Q.** What about the Biofilm forming ability ([13]; peptide 4 μM) of the same molecule?
**A.** The Biofilm forming ability was 83%.

**Q.** And the Biofilm forming ability ([13]; peptide 8 μM)?
**A.** The Biofilm forming ability was 83%.

**Q.** And the Biofilm forming ability ([13]; peptide 16 μM)?
**A.** The Biofilm forming ability was 79%.

**Q.** What about the Biofilm forming ability ([13]; peptide 32 μM) of the same molecule?
**A.** Its Biofilm forming ability is 75%.

**Q.** What about the Biofilm forming ability ([14]; peptide 0.25 μM) of the same molecule?
**A.** The Biofilm forming ability was 100%.

**Q.** And the Biofilm forming ability ([14]; peptide 0.5 μM)?
**A.** The Biofilm forming ability was 100%.

**Q.** What about the Biofilm forming ability ([14]; peptide 1 μM) of the same molecule?
**A.** The Biofilm forming ability was 100%.

**Q.** What about the Biofilm forming ability ([14]; peptide 2 μM) of the same molecule?
**A.** The Biofilm forming ability was 100%.

**Q.** And the Biofilm forming ability ([14]; peptide 4 μM)?
**A.** The Biofilm forming ability was 99%.

**Q.** What about the Biofilm forming ability ([14]; peptide 8 μM) of the same molecule?
**A.** The Biofilm forming ability was 98%.

**Q.** And the Biofilm forming ability ([14]; peptide 16 μM)?
**A.** Its Biofilm forming ability is 97%.

**Q.** What about the Biofilm forming ability ([14]; peptide 32 μM) of the same molecule?
**A.** The Biofilm forming ability was 93%.

**Q.** What about the viability at 24 h, 3.125 µM [15] of the same molecule?
**A.** The viability at 24 h, 3.125 µM was 100%.

**Q.** And the viability at 24 h, 6.25 µM [15]?
**A.** The viability at 24 h, 6.25 µM was 96%.

**Q.** What about the viability at 24 h, 12.5 µM [15] of the same molecule?
**A.** The viability at 24 h, 12.5 µM was 96%.

**Q.** What about the viability at 24 h, 25 µM [15] of the same molecule?
**A.** The viability at 24 h, 25 µM was 88%.
